Source: patent US20240197729A1, “ALK-5 Inhibitors and Uses Thereof” (Sumitomo Pharma Oncology, Inc., priority 2021, published 2024)

Assays:
[1] = test system: TGF-β1-induced SMAD signaling pathway; experiment: RD SMAD reporter (RDSR) assay; assay type: cell-based; settings: Homo sapiens; 200 pg/ml rhTGF-beta1, 24 h
From the text: TGF-beta (also referred to as TGF-β1) is a multifunctional, highly conserved cytokine with many key functions in development, cell growth and apoptosis, and plays a key role in the tissue repair response and functions as a potent immune modulator. TGF-β signaling is triggered when the activated TGF-β homodimer binds to the TGF-β receptor 2, which in turn leads to the recruitment and phosphorylation of TGF-β receptor 1 (ALK5). Activated TGF-β receptor 1 phosphorylates the signal transduction molecules SMAD2 and SMAD3. These bind to common mediator SMAD4 and translocate to the nucleus where they bind to short conserved DNA sequences called the SMAD binding element and induce the transcription of various target genes.
A stable cellular reporter, the RD SMAD reporter (RDSR), was generated to test the ability of certain compounds disclosed herein to inhibit the canonical TGF-β1-induced SMAD signaling pathway in a cellular context. The RD SMAD reporter (RDSR) cell line was generated by stably integrating the SMAD cellular reporter plasmid (Promega, pGL4.48[luc2P/SBE/Hygro]) into the human rhabdomyosarcoma cell line RD (ATCC, CCL-136). Once SMAD signaling was triggered with, for example, the addition of TGF-beta1, receptor-activated SMADs bind the SMAD binding elements (SBEs) leading to the expression of intracellular luciferase.
The rhabdomyosarcoma line RD (ATCC, CCL-136) was transfected with a SMAD reporter vector (Promega, E3671) and a polyclonal stable cell line was selected using hygromycin B. The transfected vector contained three copies of a Smad-binding element (SBE) that drives transcription of the luciferase reporter gene luc2P (Photinus pyralis). luc2P is a synthetically-derived luciferase sequence with humanized codon optimization that is designed for high expression and reduced anomalous transcription. The luc2P gene contains hPEST, a protein destabilization sequence, which allows luc2P protein levels to respond more quickly than those of luc2 to induction of transcription. The intracellular luciferase is quantified by the addition of equal volume (100 μl) of ONE-GLO substrate (Promega, E6120) and read within ten minutes on the Envision plate reader. The stable RDSR cell line was tested by evaluating the response to human TGF-beta1 (R&D Systems, 7754-BH-005) as well as myostatin (R&D Systems, 788-G8-010/CF) in a concentration-dependent manner after twenty-four hours of stimulation. […] For compound evaluation, the tool compounds (vactosertib and PF-06952229 (a TGFβR1 inhibitor available from MedChem Express HY-136244) were included as positive controls) or test compounds were incubated with cells for one hour at 37° C. then stimulated with 200 pg/ml rhTGF-beta1 for twenty-four hours. The activity of the reporter was determined with the addition of ONE-GLO (Promega) substrate, and luminescence counts were collected on the Envision plate reader (Perkin Elmer). The IC50 or EC50 was calculated using nonlinear regression curve fitting with graph pad prism software.
A comparative RDSR analysis was performed using IC50 values for selected compounds and standards obtained using the RDSR assay protocol described in Example 3.
The tool compounds vactosertib (an ALK5 inhibitor sourced from MedChem Express, HY-19928) and PF-06952229 (a TGFβR1 inhibitor) were included in the study as comparator compounds. Selected example compounds or comparator compounds were incubated with cells for one hour at 37° C. then stimulated with 200 pg/ml rhTGF-beta1 for twenty-four hours. The activity of the reporter was determined by adding ONE-GLO (Promega) substrate, and collecting luminescence counts on the Envision plate reader (Perkin Elmer).
Each of the example compounds and comparator compounds were tested at drug concentrations of from 20 micromolar to 1 nanomolar, and the IC50 value for each was calculated using Graph Pad Prism software. DMSO was used as a negative control and all wells contained normalized DMSO concentrations. […]

[2] = test system: JAK signaling; experiment: JAK selectivity assay, HEK blue IL-12 reporter; assay type: cell-based; settings: HEK-Blue, 24 h, 12.5 ng/ml IL-12, 24 h
Protocol: The cells were purchased from Invivogen (Catalog Nr: hkb-il12) and maintained according to vendor instructions. On the day of the experiment, cells were harvested by repeated tapping of the flask to shake loose the cells attached to the bottom of the flask. Then, cells were harvested, washed and resuspended in DMEM media supplemented with 10% fetal calf serum. 30 Microliters of cell suspension was seeded into a 384-well tissue culture-coated plate containing approximately 10,000 total cells. […] Using the ECHO “Dose Response” software, the test compound was added in duplicate wells with a 3-fold dilution curve. DMSO was back-filled to normalize the DMSO across all wells. […] After 30 minutes of incubation at room temperature, the optical density was measured at 620 nanometer using the Perkin Elmer Envision plate reader. A color change can be detected at this wavelength when secreted alkaline phosphatase, which is triggered by IL-12 signaling, is present in the supernatant. […]

Structure (SMILES)	EC50 [1] [µM]	IC50 [2] [µM]
Cc1nn(CC(F)(F)F)cc1Nc1cc(Nc2cnnc3c(C)cccc23)ccn1 [Compound 01, N2-[3-methyl-1-(2,2,2-trifluoroethyl)-1H-pyrazol-4-yl]-N4-(8-methylcinnolin-4-yl)pyridine-2,4-diamine]	< 0.05	3.8
Clc1cccc2c(Nc3ccnc(Nc4cccc(N5CCOCC5)c4)c3)cnnc12 [Compound 04, N4-(8-chlorocinnolin-4-yl)-N2-[3-(morpholin-4-yl)phenyl]pyridine-2,4-diamine]	< 0.05	3.7
Cc1cccc2c(Nc3ccnc(Nc4ccc(N5CCOCC5)cc4)c3)cnnc12 [Compound 05, N4-(8-methylcinnolin-4-yl)-N2-[4-(morpholin-4-yl)phenyl]pyridine-2,4-diamine]	< 0.05	–
Cc1cccc(-c2[nH]c(CNc3ccccc3F)nc2-c2ccc3ncnn3c2)n1 [Vactosertib, vactosertib, reference compound]	–	18.5
